# US9133115B2 (ACHILLION PHARMACEUTICALS, INC., priority 2008, dated 2015)
# pEC50: −log10 of the molar value.
# Tested on: HCV replicon
# Experiment: HCV replicon replication assay (NPT ELISA) in Huh-7 replicon-containing cells
# Assay type: cell-based
# Details: Hepatitis C virus, 72 h; HCV replicon in Huh-7 cells, three days incubation; read-out: EC50
# Method in brief: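 Replication was scored by capture ELISA of neomycin phosphotransferase, whose level tracks replicon replication, after graded compound treatment. The cells were Huh-7 harbouring an HCV-IRES/neo/EMCV-IRES/NS3–NS5B/3′-NTR replicon, plated at 6000-7500 cells/well and dosed 24 h later at 60-70% confluence; interferon alpha was the positive control.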
row,Structure (SMILES),pEC50
1,"C=C[C@@H]1C[C@]1(NC(=O)[C@@H]1C[C@@H](Oc2cc(-c3ccccc3)nc3cc(OC)ccc23)CN1C(=O)[C@@H](CC(=O)N1CCCCC1)C(C)(C)C)C(=O)NS(=O)(=O)C1(Cl)CC1 [Compound 158, (2S,4R)-1-((S)-2-tert-butyl-4-oxo-4-(piperidin-1-yl)butanoyl)-N-((1R,2S)-1-(1-chlorocyclopropyl-sulfonyl-carbamoyl)-2-vinylcyclopropyl)-4-(7-methoxy-2-phenylquinolin-4-yloxy)pyrrolidine-2-carboxamide]",> 6.00
2,"C=C[C@@H]1C[C@]1(NC(=O)[C@@H]1C[C@@H](NC(=O)c2cc(-c3ccccc3)nc3ccccc23)CN1C(=O)[C@@H](CC(=O)N1CCCCCC1)C(C)(C)C)C(=O)NS(=O)(=O)C1CC1 [Compound 203, N-((3R,5S)-1-((S)-4-(azepan-1-yl)-2-tert-butyl-4-oxobutanoyl)-5-((1R,2S)-1-(cyclo-propylsulfonyl-carbamoyl)-2-vinylcyclopropyl-carbamoyl)pyrrolidin-3-yl)-2-phenylquinoline-4-carboxamide]",> 6.00
3,"C=C[C@@H]1C[C@]1(NC(=O)[C@@H]1C[C@@H](Oc2cc(-c3ccccc3)nc3cc(OC)ccc23)CN1C(=O)[C@@H](CC(=O)N1CCCCC1c1nc2cc(F)ccc2[nH]1)C(C)(C)C)C(=O)NS(=O)(=O)C1CC1 (stereo partly drawn) [Compound 125, (2S,4R)-1-((2S)-2-tert-butyl-4-(2-(5-fluoro-1H-benzo[d]imidazol-2-yl)piperidin-1-yl)-4-oxobutanoyl)-N-((1R,2S)-1-(cyclo-propylsulfonyl-carbamoyl)-2-vinylcyclopropyl)-4-(7-methoxy-2-phenylquinolin-4-yloxy)pyrrolidine-2-carboxamide]",> 6.00
4,"C=C[C@@H]1C[C@]1(NC(=O)[C@@H]1C[C@@H](Oc2cc(-c3ccccn3)nc3cc(OC)ccc23)CN1C(=O)[C@@H](CC(=O)N1CCC(F)(F)CC1)C(C)(C)C)C(=O)NS(=O)(=O)C1CC1 [Compound 216, (2S,4R)-1-((S)-2-tert-butyl-4-(4,4-difluoropiperidin-1-yl)-4-oxobutanoyl)-N-((1R)-1-(cyclo-propylsulfonyl-carbamoyl)-2-vinylcyclopropyl)-4-(7-methoxy-2-(pyridin-2-yl)quinolin-4-yloxy)pyrrolidine-2-carboxamide]",> 6.00
5,"C=C[C@@H]1C[C@]1(NC(=O)[C@@H]1C[C@@H](Oc2cc(-c3ccccc3)nc3cc(OC)ccc23)CN1C(=O)[C@@H](CC(=O)N1CCCC2CCCCC21)C(C)(C)C)C(=O)NS(=O)(=O)C1CC1 (stereo partly drawn) [Compound 183, (2S,4R)-1-((2S)-2-tert-butyl-4-(octa-hydroquinolin-1(2H)-yl)-4-oxobutanoyl)-N-((1R,2S)-1-(cyclopropylsulfonyl-carbamoyl)-2-vinylcyclopropyl)-4-(7-methoxy-2-phenylquinolin-4-yloxy)pyrrolidine-2-carboxamide]",> 6.00
6,"C=CC1CC1(NC(=O)C1C[C@@H](Oc2cc(-c3ccccc3)nc3cc(OC)ccc23)CN1C(=O)[C@@H](CC(=O)N1CCCCC1)Cc1ccccc1)C(=O)NS(=O)(=O)C1CC1 (stereo partly drawn) [Compound 52, (4R)-1-((R)-2-benzyl-4-oxo-4-(piperidin-1-yl)butanoyl)-N-(1-(cyclopropyl-sulfonylcarbamoyl)-2-vinylcyclopropyl)-4-(7-methoxy-2-phenylquinolin-4-yloxy)pyrrolidine-2-carboxamide]",> 6.00
7,"C=C[C@@H]1C[C@]1(NC(=O)[C@@H]1C[C@@H](Oc2cc(-c3csc(NC(C)C)n3)nc3c(C)c(OC)ccc23)CN1C(=O)[C@@H](CC(=O)N1CCC(C(F)(F)F)CC1)C(C)(C)C)C(=O)NS(=O)(=O)C1CC1 [Compound 238, (2S,4R)-1-((S)-2-tert-butyl-4-oxo-4-(4-(trifluoro-methyl)piperidin-1-yl)butanoyl)-N-((2S)-1-(cyclopropyl-sulfonylcarbamoyl)-2-vinylcyclopropyl)-4-(2-(2-(isopropyl-amino)thiazol-4-yl)-7-methoxy-8-methylquinolin-4-yloxy)pyrrolidine-2-carboxamide]",> 6.00
8,"C=C[C@@H]1C[C@]1(NC(=O)[C@@H]1C[C@@H](Oc2cc(-c3ccccn3)nc3c(C)c(OC)ccc23)CN1C(=O)[C@@H](CC(=O)N1CCCC(F)(F)C1)C(C)(C)C)C(=O)NS(=O)(=O)C1CC1 [Compound 246, (2S,4R)-1-((S)-2-tert-butyl-4-(3,3-difluoropiperidin-1-yl)-4-oxobutanoyl)-N-((2S)-1-(cyclopropyl-sulfonylcarbamoyl)-2-vinylcyclopropyl)-4-(7-methoxy-8-methyl-2-(pyridin-2-yl)quinolin-4-yloxy)pyrrolidine-2-carboxamide]",> 6.00
9,"C=C[C@@H]1C[C@]1(NC(=O)[C@@H]1C[C@@H](Oc2cc(-c3ccccc3)nc3cc(OC)ccc23)CN1C(=O)[C@@H](CC(=O)N1CCN(c2cnccn2)CC1)C(C)(C)C)C(=O)NS(=O)(=O)C1CC1 [Compound 196, (2S,4R)-1-((S)-2-tert-butyl-4-oxo-4-(4-(pyrazin-2-yl)piperazin-1-yl)butanoyl)-N-((1R,2S)-1-(cyclopropyl-sulfonylcarbamoyl)-2-vinylcyclopropyl)-4-(7-methoxy-2-phenylquinolin-4-yloxy)pyrrolidine-2-carboxamide]",> 6.00
10,"C=C[C@@H]1C[C@]1(NC(=O)[C@@H]1C[C@@H](Oc2cc(-c3ccccc3)nc3cc(OC)ccc23)CN1C(=O)[C@@H](CC(=O)N1CC(F)(F)C1)C(C)(C)C)C(=O)NS(=O)(=O)C1CC1 [Compound 223, (2S,4R)-1-((S)-2-tert-butyl-4-(3,3-difluoroazetidin-1-yl)-4-oxobutanoyl)-N-((1R)-1-(cyclopropyl-sulfonylcarbamoyl)-2-vinylcyclopropyl)-4-(7-methoxy-2-phenylquinolin-4-yloxy)pyrrolidine-2-carboxamide]",> 6.00
11,"COc1ccc2c(O[C@@H]3C[C@@H](C(=O)N[C@H](C(=O)NS(=O)(=O)C4CC4)C(C)(C)C)N(C(=O)[C@@H](CC(=O)N4CCCCC4)C(C)(C)C)C3)cc(-c3ccccc3)nc2c1 [Compound 115, (2S,4R)-1-((S)-2-tert-butyl-4-oxo-4-(piperidin-1-yl)butanoyl)-N-((S)-1-(cyclopropanesulfon-amido)-3,3-dimethyl-1-oxobutan-2-yl)-4-(7-methoxy-2-phenylquinolin-4-yloxy)pyrrolidine-2-carboxamide]",5.00 to 6.00
12,"C=CC1CC1(NC(=O)[C@@H]1C[C@@H](Oc2cc(-c3ccccc3)nc3cc(OC)ccc23)CN1C(=O)[C@@H](CC(=O)N1CCCC(C)C1)C(C)(C)C)C(=O)NS(=O)(=O)C1CC1 (stereo partly drawn) [Compound 44, (2S,4R)-1-((2S)-2-tert-butyl-4-(3-methylpiperidin-1-yl)-4-oxobutanoyl)-N-(1-(cyclopropyl-sulfonyl-carbamoyl)-2-vinylcyclopropyl)-4-(7-methoxy-2-phenylquinolin-4-yloxy)pyrrolidine-2-carboxamide]",5.00 to 6.00
13,"C=CC1CC1(NC(=O)[C@@H]1C[C@@H](Oc2cc(-c3ccccc3)nc3cc(OC)ccc23)CN1C(=O)[C@@H](CC(=O)N1CCC(CCC)CC1)C(C)(C)C)C(=O)NS(=O)(=O)C1CC1 (stereo partly drawn) [Compound 43, (2S,4R)-1-((S)-2-tert-butyl-4-oxo-4-(4-propylpiperidin-1-yl)butanoyl)-N-(1-(cyclopropyl-sulfonyl-carbamoyl)-2-vinylcyclopropyl)-4-(7-methoxy-2-phenylquinolin-4-yloxy)pyrrolidine-2-carboxamide]",5.00 to 6.00
14,"C=C[C@@H]1CC1(NC(=O)[C@@H]1C[C@@H](Oc2cc(-c3cccnc3)nc3c(C)c(OC)ccc23)CN1C(=O)[C@@H](CC(=O)N1CCC(C(F)(F)F)CC1)C(C)(C)C)C(=O)NS(=O)(=O)C1CC1 (stereo in doubt) [Compound 253, (2S,4R)-1-((S)-2-tert-butyl-4-oxo-4-(4-(trifluoro-methyl)piperidin-1-yl)butanoyl)-N-((S)-1-(cyclopropyl-sulfonylcarbamoyl)-2-vinylcyclopropyl)-4-(7-methoxy-8-methyl-2-(pyridin-3-yl)quinolin-4-yloxy)pyrrolidine-2-carboxamide]",> 6.00
15,"C=C[C@@H]1C[C@]1(NC(=O)[C@@H]1C[C@@H](Oc2cc(-c3ccccc3)nc3cc(OC)ccc23)CN1C(=O)[C@@H](CC(=O)N1CCCCC1)C(C)(C)C)C(=O)NS(=O)(=O)c1ccc(C)cc1 [Compound 69, (2S,4R)-1-((S)-2-tert-butyl-4-oxo-4-(piperidin-1-yl)butanoyl)-4-(7-methoxy-2-phenylquinolin-4-yloxy)-N-((1R,2S)-1-(p-tolylsulfonyl-carbamoyl)-2-vinyl-cyclopropyl)pyr-rolidine-2-carboxamide]",> 6.00
16,"CCC[C@@H](NC(=O)[C@@H]1C[C@@H](Oc2cc(-c3ccccc3)nc3cc(OC)ccc23)CN1C(=O)[C@@H](CC(=O)N1CCCCC1)C(C)(C)C)C(=O)NS(=O)(=O)C1CC1 [Compound 117, (2S,4R)-1-((S)-2-tert-butyl-4-oxo-4-(piperidin-1-yl)butanoyl)-N-((R)-1-(cyclopropanesulfon-amido)-1-oxopentan-2-yl)-4-(7-methoxy-2-phenylquinolin-4-yloxy)pyrrolidine-2-carboxamide]",5.00 to 6.00
17,"C=C[C@@H]1C[C@]1(NC(=O)[C@@H]1C[C@@H](Oc2cc(-c3ccccc3)nc3cc(OC)ccc23)CN1C(=O)[C@@H](CC(=O)N1CCCCC1)C(C)(C)C)C(=O)NS(=O)(=O)C1(Cc2ccccc2)CC1 [Compound 147, (2S,4R)-N-((1R,2S)-1-(1-benzylcyclo-propylsulfonyl-carbamoyl)-2-vinyl-cyclopropyl)-1-((S)-2-tert-butyl-4-oxo-4-(piperidin-1-yl)butanoyl)-4-(7-methoxy-2-phenylquinolin-4-yloxy)pyrrolidine-2-carboxamide]",5.00 to 6.00
18,C=C[C@@H]1C[C@]1(NC(=O)[C@@H]1C[C@@H](Oc2cc(-c3ccccc3)nc3cc(OC)ccc23)CN1C(=O)[C@@H](CC(=O)N1CCC[C@H](NC(=O)OC(C)(C)C)C1)C(C)(C)C)C(=O)NS(=O)(=O)C1CC1 [Compound 167],> 6.00
19,C=C[C@@H]1C[C@]1(NC(=O)[C@@H]1C[C@@H](Oc2cc(-c3ccccc3)nc3c(C)c(OC)ccc23)CN1C(=O)[C@@H](CC(=O)N1CCCCC1)C(C)(C)C)C(=O)NS(=O)(=O)C1CC1 [Compound 239],> 6.00
